Results on 20 compounds are retold here after US8598383B2, “Pharmaceutical composition for treating or preventing degenerative and inflammatory diseases” (Neurotech Pharmaceuticals Co., Ltd., priority 2006, dated 2013).

The LD50 is the dose expected to kill half of the subjects tested. Higher therefore signals lower toxicity. As a reminder, the IC50 is the concentration needed to halve the response being measured. Low values mean inhibition by little substance, high ones a need for much substance. In general, inhibition refers to the share of the control response that was lost under treatment.

For data set [1], the system named is MPO (myeloperoxidase). The note with it: cited from earlier work; for activity of MPO: in vivo.
The subject of data set [2] is DSS-induced colitis. The experiment in a line: 5% dextran sulfate sodium (DSS) inflammatory intestinal disease model. The class given is in vivo, mouse. The note with it: vs DSS only; compound 18 25 mg/kg oral. On the procedure:
FIG. 17 is results showing efficacy through 5% dextran sulfate sodium (DSS) model, inflammatory intestinal disease animal model. After treatment of DSS, 10, 25 or 50 mg/kg of compound 18 suspended in 10% vehicle was orally administered. Sham means colon of normal mouse, DSS means colon mouse treated with 5% DSS. The others are pictures of colon of mice administered with compound 18 at indicated dose.
FIG. 20 is an efficacy test result of compound 18 using DSS. After treatment of DSS, compound 18 (25 mg/kg) suspended in 10% vehicle was orally administered. After that, bloody excrement by colon injury, diarrhea and the degree of dirtiness were evaluated as feces score.
5% dextran sulfate sodium (DSS) model was used as inflammatory intestinal disease animal model. 5% DSS mixed with water was orally administered. 5% DSS model causes damage to epithelial cell, and ulcer in left colon and the decrease of colon length are mainly observed in the model. This model is simple and reproductive, and can regulate the degree of inflammation according to dose. Therefore, this model is often used for evaluating drug candidates.
DSS is continuously administered in water bottle. The 2-hydroxybenzoic acid derivative was suspended in 10% vehicle, and orally administered.

A short description of data set [3]: Single-dose toxicity test. The class given is in vivo. As to the method: FIG. 32 is results of single dose toxicity testing of some 2-hydroxybenzoic acid derivatives according to the present invention.
Single-dose toxicities of the 2-hydroxybenzoic acid derivatives were evaluated.

Data set [4] relates to BV2 microglia cell line. The experiment in a line: Suppressing effect on production of NO (LPS, Griess reagent). The class given is cell-based. The note with it: Mus musculus, BV-2, LPS-treated BV2 microglia, 24 hours incubation. On the procedure:
Inhibiting effect of the 2-hydroxybenzoic acid derivative according to the present invention on NO, inflammatory factor intervening inflammation reaction was evaluated. BV2 microglia cell line was treated with lipopolysaccharide (LPS), a inflammation-inducing material of bacteria toxin, with inclusion of 10 uM, 30 uM or 100 uM of the present compound. After 24 hours of incubation, 50 ul of culture medium was collected in 96-well plate. Then, 50 ul of Griess reagent was added and incubated for 10 minutes at room temperature. The absorbance was evaluated by ELISA reader at 540 nm.
In general terms: Nitrite, measured by Griess reagent, commonly stands in for NO production.

The subject of data set [5] is TNF-α production in BV2 cell line. The experiment in a line: Suppressing effect on production of cytokine (ELISA), TNF-α. The note with it: LPS + 100 uM of sample, 24 hours; for inhibition at 100 µM: Mus musculus, BV-2, level in medium; for TNF-α % Inhibition: level in medium, 100 µM. Format: cell-based. As to the method:
(§1) Effects of the 2-hydroxybenzoic acid derivatives on production of cytokine in BV2 cell line were evaluated. 24-well plate was inoculated with 1×10^6 cells of BV2 cell line, and treated with both LPS, inflammation-inducing material, and 100 uM of sample (the 2-hydroxybenzoic acid derivative or comparative drug), together. After 24 hours of incubation, culture medium was collected. The levels of cytokines, TNF-α and IL-6, in the medium were evaluated by ELISA method.
(In general: ELISA stands for enzyme-linked immunosorbent assay.)

In data set [6] the test system is collagen-induced arthritis. The experiment in a line: Collagen-induced arthritis model (arthritic index). The class given is in vivo, mouse. On the procedure: FIG. 15 is results showing efficacy through arthritis animal model induced by collagen. 25 mg/kg of compound 2, 3 or 18, or methotrexate (control, MTX, 1 mg/kg/week) was intraperitoneally injected after administration of collagen.
FIG. 16 is results showing efficacy of compounds 6 and 11 through arthritis animal model induced by collagen. Collagen was intradermally injected two times with 2 week-interval. One week later, compound 6, compound 11 and methotrexate (control) were intraperitoneally injected. Then, the animals were observed everyday for 2-3 weeks, and results was evaluated by arthritis index.
To evaluate the efficacy of the 2-hydroxybenzoic acid derivative, collagen-induced arthritis model (rheumarthritis animal model) was used. Bovine type II collagen was mixed with complete Freund's adjuvant to make an emulsion, and the emulsion was intradermally injected into the origin site of 8˜10 week-old DBA/1LacJ mouse tail. Intradermal boosting was performed by the same method 2 weeks later. 25 mg/kg/day of compounds 2, 3 and 18, 1 mg/kg/week of methotrexate (comparative example) or 10% vehicle (control) were intraperitoneally injected one week after the second intradermal injection of collagen (FIG. 15). Pictures of foot edema of normal rat (sham), collagen-administered rat (collagen) and compound 18-administered rat (compound 18, 25 mg/kg/day injection) were shown in FIG. 14.
In addition, 50 mg/kg/day of compounds 6 and 11, and 5 mg/kg/2 days of methotrexate (comparative example) were intraperitoneally injected. Phosphate buffered saline was injected as control (FIG. 16). For 2˜3 weeks, the degree of arthritis was observed everyday, and the result was evaluated according to the below arthritic index using edema.
4 paws were evaluated as from 0 to 4 point, Total points: 16

The subject of data set [7] is IL-6 production in BV2 cell line. The experiment in a line: Suppressing effect on production of cytokine (ELISA), IL-6. Format: cell-based. The settings on record: LPS + 100 uM of sample, 24 hours; for inhibition at 100 µM: Mus musculus, BV-2, level in medium; for IL-6 % Inhibition: level in medium. On the procedure:
as §1

Data set [8] concerns IL-1beta gene expression in BV2 cell line. The experiment in a line: Suppressing effect on gene expression (RT-PCR), IL-1beta. The class given is cell-based. The note with it: Mus musculus, BV-2, 24 h, gene expression vs LPS control, BV2, 24 hours. As to the method: (§2) Effects of the 2-hydroxybenzoic acid derivatives on iNOS gene expression in BV2 cell line were evaluated. 100 mm dish was inoculated with 1×10^6 cells of BV2 cell line, and treated with both LPS, inflammation-inducing material, and 1˜100 uM of the 2-hydroxybenzoic acid derivative of the present invention, together, in regular concentration interval. After 24 hours of incubation, RNA was extracted. Extracted RNA was used in reverse transcription and polymerase chain reaction, and expression patterns of TNF-alpha, IL-1beta and iNOS were compared.

Data set [9] deals with TNF-alpha gene expression in BV2 cell line. The experiment in a line: Suppressing effect on gene expression (RT-PCR), TNF-alpha. The note with it: gene expression vs LPS control, BV2, 24 hours; for inhibition at 100 µM: Mus musculus, BV-2, 24 h. Format: cell-based. On the procedure: as §2
The test system of data set [10] is iNOS gene expression in BV2 cell line. Nature of the data set: Suppressing effect on gene expression (RT-PCR), iNOS. The class given is cell-based. The note with it: Mus musculus, BV-2, 24 h, gene expression vs LPS control, BV2, 24 hours. On the procedure:
as §2

For `O=C(O)c1cc(/N=N/c2ccc(S(=O)(=O)Nc3ccccn3)cc2)ccc1O` [sulfasalazine, reference compound], the “activity of MPO” value in data set [1] is on record as “decreased the activity of MPO”. For the same compound, the “feces score (bloody excrement, diarrhea, dirtiness)” value in [2] is “significantly decreased feces score”.

Compound `O=C(O)c1cc(NCCc2ccccc2Cl)ccc1O` [compound 19, 5-[2-(2-chloro-phenyl)-ethylamino]-2-hydroxy-benzoic acid] displayed an LD50 in [3] (mouse, in vivo, single dose) of 500 to 1000 mg/kg.

Take `O=C(O)c1cc(NCCc2cc(C(F)(F)F)cc(C(F)(F)F)c2)ccc1O` [compound 4, 5-[2-(3,5-bis-trifluoromethyl-phenyl)-ethylamino]-2-hydroxy-benzoic acid]: the “single-dose toxicity, finding in words” value in data set [3] (mouse, in vivo) is “caused sudden death of mouse at 3 g/kg”. In addition, in data set [4], inhibition was half-maximal at 6.25 µM (IC50). Also, in [5], the inhibition at 100 µM is 18.7%.

In the case of `O=C(O)c1cc(NCCc2cccc(C(F)(F)F)c2)ccc1O` [compound 3, 2-hydroxy-5-[2-(3-trifluoromethyl-phenyl)-ethylamino]-benzoic acid], the “single-dose toxicity, finding in words” value in [3] (single dose) is “high toxicity or dose-independent toxicity”. Moreover, the results for the inhibition at 100 µM in data set [5] and in data set [7] were 31.9% and 33.1%, respectively. Further, in data set [6] (25 mg/kg/day intraperitoneal), the arthritic index entry is reported as “apparent reducing effect”.

`CC(c1cc2ccccc2s1)N(O)C(N)=O` (stereo not shown) [Zileuton]: the “activity of MPO” value in data set [1] was “decreased the activity of MPO”.

For the compound `O=C(O)c1cc(NCCc2ccc(Cl)c(Cl)c2)ccc1O` [compound 8, 5-[2-(3,4-dichloro-phenyl)-ethylamino]-2-hydroxy-benzoic acid], the inhibition at 100 µM in [8] is > 50%. For the same compound, in data set [9], the inhibition at 100 µM was determined as 77% and the “% Inhibition (in 100 uM) TNF-alpha” value came to 77.1%.

For `O=C(O)c1cc(NCCc2ccccc2[N+](=O)[O-])ccc1O` [compound 5, 2-hydroxy-5-[2-(2-nitro-phenyl)-ethylamino]-benzoic acid], the inhibition at 100 µM in [8] turned out to be 67.7%; in data set [9] it was 38.7%.

Consider `O=C(O)c1cc(NCCCc2ccc(C(F)(F)F)cc2)ccc1O` [compound 14, 2-hydroxy-5-[3-(4-trifluoromethyl-phenyl)-propylamino]-benzoic acid], for which the “single-dose toxicity, finding in words” value in data set [3] (single dose) is “high toxicity or dose-independent toxicity”. For the same compound, the inhibition at 100 µM turned out to be 38.9% in [9], 44.3% in [10] and 62.6% in data set [5].

The compound `O=C(O)c1cc(NCCc2ccc(F)cc2C(F)(F)F)ccc1O` [compound 9, 5-[2-(4-fluoro-2-trifluoromethyl-phenyl)-ethylamino]-2-hydroxy-benzoic acid] displayed an IC50 in data set [4] of 1.79 µM. In addition, in data set [9], 100 µM produced 61.7% inhibition and the “% Inhibition (in 100 uM) TNF-alpha” value is listed as 61.7%. In data set [10], this compound came in with an inhibition at 100 µM of 17.8%.

Take `O=C(O)c1cc(NCCc2ccc(C(F)(F)F)cc2F)ccc1O` [compound 10, 5-[2-(2-fluoro-4-trifluoromethyl-phenyl)-ethylamino]-2-hydroxy-benzoic acid]: the IC50 in [4] worked out at 20.7 µM.

With `CC(C)Cc1ccc(C(C)C(=O)O)cc1` (stereo not shown) [Ibuprofen, reference compound], the “TNF-α % Inhibition” value in data set [5] is given as “No effect”; in data set [5] (listed as ibuprofen), “did not showing reducing effect”. The “IL-6 % Inhibition” value in data set [7] (100 µM) was “No effect”; in data set [7] (listed as ibuprofen, 100 µM), “little reduced”.

On to `Cc1ccccc1CCNc1ccc(O)c(C(=O)O)c1` [compound 12, 2-hydroxy-5-(2-o-tolyl-ethylamino)-benzoic acid], for which the inhibition at 100 µM came to 41.8% in [8] and 43.7% in data set [10].

In turn, `O=C(O)c1cc(NCCc2ccccc2)ccc1O` [compound 1, 2-hydroxy-5-phenethylamino-benzoic acid] returned an IC50 in data set [4] of 183 µM.

For `CS(=O)(=O)Nc1ccc([N+](=O)[O-])cc1Oc1ccccc1` [nimesulide], the “protective effect in intestinal damage animal models” value in data set [1] (acetic acid-induced IBD and LTB4-induced IBD) is given as “showed protective effect”. For the same compound, the “activity of MPO” value in [1] was “excessively suppressed the activity of MPO”.

In turn, `Cc1ccc(CCCNc2ccc(O)c(C(=O)O)c2)cc1` [compound 17, 2-hydroxy-5-(3-p-tolyl-propylamino)-benzoic acid] showed an inhibition at 100 µM in data set [9] of 20.8%.

Consider `O=C(O)c1cc(NCCc2ccc(Cl)cc2)ccc1O` [compound 6, 5-[2-(4-chloro-phenyl)-ethylamino]-2-hydroxy-benzoic acid], for which, in [6] (50 mg/kg/day intraperitoneal), the arthritic index result is “apparent reducing effect”.

As for `O=C(O)c1cc(NCCCc2ccc(F)cc2)ccc1O` [compound 15, 5-[3-(4-fluoro-phenyl)-propylamino]-2-hydroxy-benzoic acid], the inhibition at 100 µM in data set [8] is 35.1%; in [9] it was 37.4%.

In turn, `COc1ccc(CCNc2ccc(O)c(C(=O)O)c2)cc1` [compound 11, 2-hydroxy-5-[2-(4-methoxy-phenyl)-ethylamino]-benzoic acid] yielded an IC50 in data set [4] of 132 µM. In [6] (50 mg/kg/day intraperitoneal), the arthritic index entry is given as “apparent reducing effect”.

Turning to `O=C(O)c1cc(NCCCc2ccccc2)ccc1O` [compound 13, 2-hydroxy-5-(3-phenyl-propylamino)-benzoic acid], the inhibition at 100 µM turned out to be 43% in [9] and 15.5% in data set [10].

Regarding `CC(=O)Oc1ccccc1C(=O)O` [Aspirin, acetylsalicylic acid, reference compound], the “TNF-α % Inhibition” value in data set [5] is on record as “No effect”. For the same compound, the “TNF-α % Inhibition” value in data set [5] (listed as aspirin) was “did not showing reducing effect”. In data set [7], the inhibition at 100 µM turned out to be 22.2% and the “IL-6 % Inhibition” value is “little reduced”.
